Measured values reported in patent publication US20260042764A1, “COMPOSITIONS AND METHODS FOR INHIBITION OF KRAS” (TheRas, Inc., priority 2022, published 2026).

Key:
RKN cells (KRAS G12V) [1] = assay: Cell-based pERK HTRF assay in RKN cells (Biological Example 5)
Experimental: (§1) Biological Example 5: Cell-based PERK HTRF assay in AsPC-1, SW1900, HPAC, Capan-2, RKN, H358, HCT116, KP-2, H1573, A549, MKN1, and HT1080 cells
(§2) The inhibition of ERK phosphorylation, as measured using the HTRF Advanced Phospho-ERK 1/2 (Thr202/Tyr204) Detection Assay kit (Perkin Elmer), was used to determine the effectiveness of test compounds in disrupting KRAS-driven protein/effector signaling in cells.
(§3) On day 1, cells were seeded into 96-well plates at 2.5×10^4 cells/well in 100 μL of complete growth media supplemented with 10% fetal bovine serum (FBS) and incubated at 37° C., in the presence of 5% CO2.
(§4) On day 2, cells were treated with compounds diluted in DMSO at 0.25% final DMSO concentration. Compounds were dosed in a 9-point concentration curve with three-fold dilution between concentrations. Cells were incubated in the presence of compound for two hours at 37° C. Following this treatment period, cells were harvested by aspirating the media, adding 40 μL of kit-supplied 1x lysis buffer per well, and shaking for 30 minutes at 250 rpm at room temperature.
(§5) Following cell lysis, samples were homogenized by pipetting up and down twenty times and 16 μL of cell lysate per well was transferred from the 96-well cell culture plate to two wells of a 384-well detection plate. A complete detection buffer was prepared by diluting D2 and Eu Cryptate antibodies 1:20 in kit-provided detection solution, 4 μL of complete detection buffer was then added to each well with lysate. Plates were incubated with gentle rocking for 24 hours at 4° C.
(§6) Following this incubation period, plates were centrifuged at 500×g for one minute and analyzed on a CLARIOstar plate reader. Data was imported into Microsoft Excel and the signal from the 665 nm channel was divided by the signal from the 620 nm channel. % pERK was calculated as: […]
(§7) Data was imported to the Prism software package (Graphpad) and EC50 values were calculated using the log (inhibitor) vs, response—variable slopc (Four parameters) model.

[2] = tested on: Capan-2 cells (KRAS G12V); assay: Cell-based pERK HTRF assay in Capan-2 cells (Biological Example 5)
Experimental: as §1, §2, §3, §4, §5, §6, §7

[3] = tested on: MKN1 cells (KRAS amplification); assay: Cell-based pERK HTRF assay in MKN1 cells (Biological Example 5)
Experimental: as §1, §2, §3, §4, §5, §6, §7

SW1900 cells (KRAS G12D) [4] = assay: 3D Cell viability assay in SW1900 cells (Biological Example 6); assay type: cell-based; conditions: Homo sapiens; SW1990 (text: SW1900, KRAS G12D) spheroids, 72 hours
Outline: (§8)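 Luminescent ATP read-out (CellTiter-Glo 3D) after 72 h compound exposure gives viability of preformed spheroids. Cells were seeded at 1000 per well in low-attachment plates and left 48 h to aggregate before dosing with nine three-fold concentrations at 0.25% DMSO.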

H358 cells (KRAS G12C) [5] = assay: 3D Cell viability assay in H358 cells (Biological Example 6); assay type: cell-based; conditions: Homo sapiens, NCI-H358; H358 (KRAS G12C) spheroids, 72 hours
Outline: as §8

[6] = tested on: MKN1 cells (KRAS amplification); assay: 3D Cell viability assay in MKN1 cells (Biological Example 6); assay type: cell-based; conditions: Homo sapiens, MKN-1; MKN (MKN1, KRAS amplification) spheroids, 72 hours
Experimental: (§9) Biological Example 6: 3D Cell viability assay in AsPC-1, SW1900, HPAC, Capan-2, RKN, H358, HCT116, KP-2, H1573, A549, MKN1, and HT1080 cells
(§10) The inhibition of cellular viability as a result of test compound treatment in a spheroid assay was measured using the CellTiter-Glow 3D Cell Viability Assay (Promega).
(§11) On Day 1, 1000 cells per well were seeded in 150 μL of complete growth media supplemented with 10% fetal bovine serum (FBS) and incubated at 37° C., in the presence of 5% CO2 in 96-well ultra-low attachment microplates (Corning) for 48 hours undisturbed to allow spheroids to form.
(§12) Following spheroid formation, cells were treated with compounds diluted in DMSO at 0.25% final DMSO concentration. Compounds were dosed in a 9-point concentration curve with three-fold dilution between concentrations. Cells were incubated in the presence of compound for 72 hours at 37° C., in the presence of 5% CO2.
(§13) Following this incubation period, the kit-provided CTG reagent was allowed to equilibrate for 30 minutes at room temperature, 150 μL of equilibrated CTG reagent was added to each well, and the plate was sealed before shaking at 250 rpm for 10 minutes at room temperature to lyse the cells, 150 μL of lysate per well was transferred to a 96-well plate and luminescence was read on a CLARIOstar plate reader.
(§14) Data was imported into the Prism software package (Graphpad) and EC50 values were calculated using the log (inhibitor) vs, response—variable slope (Four parameters) model.

RKN cells (KRAS G12V) [7] = assay: 3D Cell viability assay in RKN cells (Biological Example 6); assay type: cell-based; conditions: RKN (KRAS G12V) spheroids, 72 hours
Experimental: as §9, §10, §11, §12, §13, §14

SW1900 cells (KRAS G12D) [8] = assay: Cell-based pERK HTRF assay in SW1900 cells (Biological Example 5)
Experimental: as §1, §2, §3, §4, §5, §6, §7

[9] = tested on: Capan-2 cells (KRAS G12V); assay: 3D Cell viability assay in Capan-2 cells (Biological Example 6); assay type: cell-based; conditions: Homo sapiens; Capan-2 (KRAS G12V) spheroids, 72 hours
Experimental: as §9, §10, §11, §12, §13, §14

H358 cells (KRAS G12C) [10] = assay: Cell-based pERK HTRF assay in H358 cells (Biological Example 5)
Experimental: as §1, §2, §3, §4, §5, §6, §7

HPAC cells (KRAS G12D) [11] = assay: 3D Cell viability assay in HPAC cells (Biological Example 6); assay type: cell-based; conditions: Homo sapiens, HPAC, 72 h, HPAC (KRAS G12D) spheroids
Outline: as §8

HCT116 cells (KRAS G13D) = assay: 3D Cell viability assay in HCT116 cells (Biological Example 6); assay type: cell-based; conditions: Homo sapiens, HCT-116; HCT116 (KRAS G13D) spheroids, 72 hours
Outline: as §8

AsPC-1 cells (KRAS G12D) = assay: 3D Cell viability assay in AsPC-1 cells (Biological Example 6); assay type: cell-based; conditions: Homo sapiens, ASPC1; AsPC-1 (KRAS G12D) spheroids, 72 hours
Experimental: as §9, §10, §11, §12, §13, §14

HPAC cells (KRAS G12D) [12] = assay: Cell-based pERK HTRF assay in HPAC cells (Biological Example 5)
Experimental: as §1, §2, §3, §4, §5, §6, §7

[13] = Homo sapiens, Capan-2, Capan-2 (KRAS G12V) cells
[14] = Homo sapiens, MKN-1, MKN cells (MKN1, KRAS amplification)
[15] = Homo sapiens, SW1990, SW1990 cells (text: SW1900, KRAS G12D)
[16] = Homo sapiens, NCI-H358, H358 (KRAS G12C) cells

IC50 (RKN cells (KRAS G12V) [1]) [nM] | IC50 [2, 13] [nM] | IC50 [3, 14] [nM] | IC50 (SW1900 cells (KRAS G12D) [4]) [nM] | IC50 (H358 cells (KRAS G12C) [5]) [nM] | IC50 [6] [nM] | IC50 (SW1900 cells (KRAS G12D) [8]; [15]) [nM] | IC50 (H358 cells (KRAS G12C) [10]; [16]) [nM] | IC50 (HCT116 cells (KRAS G13D)) [nM] | IC50 (AsPC-1 cells (KRAS G12D)) [nM] | IC50 (HPAC cells (KRAS G12D) [12]; Homo sapiens, HPAC) [nM] | IC50 ([2]; Capan-2 (KRAS G12V) cells) [nM] | IC50 ([3]; MKN cells (MKN1, KRAS amplification)) [nM] | IC50 (SW1900 cells (KRAS G12D) [8]; SW1990 cells (text: SW1900, KRAS G12D)) [nM] | IC50 (H358 cells (KRAS G12C) [10]; H358 (KRAS G12C) cells) [nM] | IC50 (HPAC cells (KRAS G12D) [12]) [nM] | Compound | IC50 (RKN cells (KRAS G12V) [7]) [nM] | IC50 [9] [nM] | IC50 (HPAC cells (KRAS G12D) [11]) [nM]
≤ 100 | ≤ 100 | ≤ 100 | ≤ 100 | ≤ 100 | ≤ 100 | ≤ 100 | ≤ 100 | 100 to 1000 | ≤ 100 | ≤ 100 |  |  |  |  |  | CCN(c1nc(OC[C@@]23CCCN2C[C@H](F)C3)nc2c(F)c(-c3ccc(F)c4sc(N)c(C#N)c34)c(C(F)(F)F)cc12)[C@H]1CC(=O)N2CCC[C@@H]12 (atropisomer, axis not shown; (aS)) [Compound 697, 2-amino-4-((S)-4-(ethyl((1S,7aS)-3-oxohexahydro-1H-pyrrolizin-1-yl)amino)-8-fluoro-2-(((2R,7aS)-2-fluorotetrahydro-1H-pyrrolizin-7a(5H)-yl)methoxy)-6-(trifluoromethyl)quinazolin-7-yl)-7-fluorobenzo[b]thiophene-3-carbonitrile] | ≤ 100 | ≤ 100 | ≤ 100
≤ 100 | ≤ 100 | ≤ 100 | ≤ 100 | ≤ 100 | ≤ 100 | ≤ 100 | ≤ 100 | 100 to 1000 | ≤ 100 | ≤ 100 |  |  |  |  |  | CCC(=O)N1C[C@@H](N(CC)c2nc(OC[C@@]34CCCN3C[C@H](F)C4)nc3c(F)c(-c4ccc(F)c5sc(N)c(C#N)c45)c(C(F)(F)F)cc23)C[C@H]1C [Compound 442] | ≤ 100 | ≤ 100 | 100 to 1000
≤ 100 |  |  | ≤ 100 | ≤ 100 | ≤ 100 |  |  | 100 to 1000 | ≤ 100 |  | ≤ 100 | ≤ 100 | ≤ 100 | ≤ 100 | ≤ 100 | CCN(c1nc(OC[C@@]23CCCN2C[C@H](F)C3)nc2c(F)c(-c3ccc(F)c4sc(N)c(C#N)c34)c(C(F)(F)F)cc12)[C@H]1CCN(C(=O)C(C)C)C1 [Compound 332] | ≤ 100 | ≤ 100 | 100 to 1000
≤ 100 | ≤ 100 | ≤ 100 | ≤ 100 | ≤ 100 | ≤ 100 | ≤ 100 | ≤ 100 | 100 to 1000 | ≤ 100 | ≤ 100 |  |  |  |  |  | CCN(c1nc(OC[C@@]23CCCN2C[C@H](F)C3)nc2c(F)c(-c3ccc(F)c4sc(N)c(C#N)c34)c(C(F)(F)F)cc12)[C@@H]1CCN(C(C)=O)C1 [Compound 268] | ≤ 100 | ≤ 100 | ≤ 100
100 to 1000 | 100 to 1000 | ≤ 100 | ≤ 100 | 100 to 1000 | ≤ 100 | ≤ 100 | 100 to 1000 | > 1000 | ≤ 100 | ≤ 100 |  |  |  |  |  | C[C@@H]1[C@H](N(C)c2nc(OC[C@@]34CCCN3C[C@H](F)C4)nc3c(F)c(-c4ccc(F)c5sc(N)c(C#N)c45)c(C(F)(F)F)cc23)CC(=O)N1C [Compound 440] | ≤ 100 | 100 to 1000 | 100 to 1000

Compound | IC50 (RKN cells (KRAS G12V) [1]) [nM] | IC50 [2, 13] [nM] | IC50 [3, 14] [nM] | IC50 (SW1900 cells (KRAS G12D) [4]) [nM] | IC50 (H358 cells (KRAS G12C) [5]) [nM] | IC50 [6] [nM] | IC50 (SW1900 cells (KRAS G12D) [8]; [15]) [nM] | IC50 (H358 cells (KRAS G12C) [10]; [16]) [nM] | IC50 (HCT116 cells (KRAS G13D)) [nM] | IC50 (AsPC-1 cells (KRAS G12D)) [nM] | IC50 (HPAC cells (KRAS G12D) [12]; Homo sapiens, HPAC) [nM] | IC50 ([2]; Capan-2 (KRAS G12V) cells) [nM] | IC50 ([3]; MKN cells (MKN1, KRAS amplification)) [nM] | IC50 (SW1900 cells (KRAS G12D) [8]; SW1990 cells (text: SW1900, KRAS G12D)) [nM] | IC50 (H358 cells (KRAS G12C) [10]; H358 (KRAS G12C) cells) [nM] | IC50 (HPAC cells (KRAS G12D) [12]) [nM] | IC50 (RKN cells (KRAS G12V) [7]) [nM] | IC50 [9] [nM] | IC50 (HPAC cells (KRAS G12D) [11]) [nM]
N#Cc1c(N)sc2c(F)ccc(-c3c(C(F)(F)F)cc4c(N5CC6CC(C5)O6)nc(OC[C@@]56CCCN5C[C@H](F)C6)nc4c3F)c12 (single isomer, unassigned) [Compound 275] | ≤ 100 | ≤ 100 | ≤ 100 | ≤ 100 | ≤ 100 | ≤ 100 | ≤ 100 | ≤ 100 | 100 to 1000 | > 1000 | 100 to 1000 |  |  |  |  |  | ≤ 100 | ≤ 100 | > 1000
